In PubChem BioAssay (NCI):
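The compound was tested at five concentrations on cells cultured in 96-well plates, with a 48-hour exposure period. GI50 = concentration required for 50% inhibition of growth. TGI is the concentration that stops growth completely.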

How the values were obtained:
Assay in all cases: NCI-60 cell line screen, 48 h
786-0 renal = system: 786-0 renal
A498 renal = system: A498 renal
A549 NSCLC = system: A549 NSCLC
ACHN renal = system: ACHN renal
BT-549 breast = system: BT-549 breast
CAKI-1 renal = system: CAKI-1 renal
CCRF-CEM leukemia = system: CCRF-CEM leukemia
COLO 205 colon = system: COLO 205 colon
DU-145 prostate = system: DU-145 prostate
EKVX NSCLC = system: EKVX NSCLC
HCC-2998 colon = system: HCC-2998 colon
HCT-116 colon = system: HCT-116 colon
HCT-15 colon = system: HCT-15 colon
HL-60(TB) leukemia = system: HL-60(TB) leukemia
HOP-62 NSCLC = system: HOP-62 NSCLC
HOP-92 NSCLC = system: HOP-92 NSCLC
HS 578T breast = system: HS 578T breast
HT29 colon = system: HT29 colon
IGROV1 ovarian = system: IGROV1 ovarian
K-562 leukemia = system: K-562 leukemia
KM12 colon = system: KM12 colon
LOX IMVI melanoma = system: LOX IMVI melanoma
M14 melanoma = system: M14 melanoma
MALME-3M melanoma = system: MALME-3M melanoma
MCF7 breast = system: MCF7 breast
MDA-MB-231 breast = system: MDA-MB-231 breast
MDA-MB-435 = system: MDA-MB-435
MOLT-4 leukemia = system: MOLT-4 leukemia
NCI-H226 lung = system: NCI-H226 lung
NCI-H23 lung = system: NCI-H23 lung
NCI-H460 lung = system: NCI-H460 lung
NCI-H522 lung = system: NCI-H522 lung
NCI/ADR-RES ovarian = system: NCI/ADR-RES ovarian
OVCAR-3 ovarian = system: OVCAR-3 ovarian
OVCAR-4 ovarian = system: OVCAR-4 ovarian
OVCAR-5 ovarian = system: OVCAR-5 ovarian
OVCAR-8 ovarian = system: OVCAR-8 ovarian
PC-3 prostate = system: PC-3 prostate
RPMI-8226 leukemia = system: RPMI-8226 leukemia
RXF 393 renal = system: RXF 393 renal
SF-268 CNS = system: SF-268 CNS
SF-295 CNS = system: SF-295 CNS
SF-539 CNS = system: SF-539 CNS
SK-MEL-2 melanoma = system: SK-MEL-2 melanoma
SK-MEL-28 melanoma = system: SK-MEL-28 melanoma
SK-MEL-5 melanoma = system: SK-MEL-5 melanoma
SK-OV-3 ovarian = system: SK-OV-3 ovarian
SN12C renal = system: SN12C renal
SNB-19 CNS = system: SNB-19 CNS
SNB-75 CNS = system: SNB-75 CNS
SR leukemia = system: SR leukemia
SW-620 colon = system: SW-620 colon
TK-10 renal = system: TK-10 renal
U251 CNS = system: U251 CNS
UACC-257 melanoma = system: UACC-257 melanoma
UACC-62 melanoma = system: UACC-62 melanoma
UO-31 renal = system: UO-31 renal

CCC[C@H](Nc1nc(-c2ccc(NC(=O)NCC)c(OC)c2)ncc1C)c1cccnc1
GI50 (786-0 renal): 0.0453 µM | TGI (786-0 renal): 12.6 µM | GI50 (A498 renal): 0.0322 µM | TGI (A498 renal): 0.864 µM | GI50 (A549 NSCLC): 0.0378 µM | TGI (A549 NSCLC): > 36.2 µM | GI50 (ACHN renal): 0.0721 µM | TGI (ACHN renal): 35.2 µM | GI50 (BT-549 breast): 0.0413 µM | TGI (BT-549 breast): 26 µM | GI50 (CAKI-1 renal): 0.222 µM | TGI (CAKI-1 renal): 24 µM | GI50 (CCRF-CEM leukemia): 0.032 µM | GI50 (COLO 205 colon): 0.0282 µM | TGI (COLO 205 colon): 0.0736 µM | GI50 (DU-145 prostate): 0.028 µM | TGI (DU-145 prostate): 0.0753 µM | GI50 (EKVX NSCLC): 0.0621 µM | TGI (EKVX NSCLC): > 100 µM | GI50 (HCC-2998 colon): 0.0295 µM | TGI (HCC-2998 colon): 0.874 µM | GI50 (HCT-116 colon): 0.0349 µM | TGI (HCT-116 colon): 10.5 µM | GI50 (HCT-15 colon): 0.112 µM | TGI (HCT-15 colon): > 42.5 µM | GI50 (HL-60(TB) leukemia): 0.0246 µM | TGI (HL-60(TB) leukemia): 0.0582 µM | GI50 (HOP-62 NSCLC): 0.0638 µM | TGI (HOP-62 NSCLC): 39.7 µM | GI50 (HOP-92 NSCLC): 0.236 µM | TGI (HOP-92 NSCLC): 12.5 µM | GI50 (HS 578T breast): 0.0345 µM | GI50 (HT29 colon): 0.0361 µM | TGI (HT29 colon): 16.9 µM | GI50 (IGROV1 ovarian): 0.0566 µM | TGI (IGROV1 ovarian): 24.6 µM | GI50 (K-562 leukemia): 0.031 µM | TGI (K-562 leukemia): 16.4 µM | GI50 (KM12 colon): 0.0337 µM | TGI (KM12 colon): 0.225 µM | GI50 (LOX IMVI melanoma): 0.0415 µM | TGI (LOX IMVI melanoma): 13.8 µM | GI50 (M14 melanoma): 0.0282 µM | TGI (M14 melanoma): 0.0824 µM | GI50 (MALME-3M melanoma): 13.8 µM | TGI (MALME-3M melanoma): 49.1 µM | GI50 (MCF7 breast): 0.0365 µM | TGI (MCF7 breast): 29.6 µM | GI50 (MDA-MB-231 breast): 0.0372 µM | TGI (MDA-MB-231 breast): 1.72 µM | GI50 (MDA-MB-435): 0.0219 µM | TGI (MDA-MB-435): 0.0533 µM | GI50 (MOLT-4 leukemia): 0.0359 µM | TGI (MOLT-4 leukemia): 13.1 µM | GI50 (NCI-H226 lung): 0.0531 µM | TGI (NCI-H226 lung): 25.7 µM | GI50 (NCI-H23 lung): 0.0444 µM | TGI (NCI-H23 lung): 6.93 µM | GI50 (NCI-H460 lung): 0.0357 µM | TGI (NCI-H460 lung): 13.3 µM | GI50 (NCI-H522 lung): 0.0345 µM | TGI (NCI-H522 lung): 0.868 µM | GI50 (NCI/ADR-RES ovarian): 0.214 µM | TGI (NCI/ADR-RES ovarian): 9.97 µM | GI50 (OVCAR-3 ovarian): 0.0221 µM | TGI (OVCAR-3 ovarian): 0.0492 µM | GI50 (OVCAR-4 ovarian): 0.0691 µM | TGI (OVCAR-4 ovarian): 41.8 µM | GI50 (OVCAR-5 ovarian): 0.0579 µM | TGI (OVCAR-5 ovarian): > 100 µM | GI50 (OVCAR-8 ovarian): 0.0369 µM | TGI (OVCAR-8 ovarian): 14.6 µM | GI50 (PC-3 prostate): 0.047 µM | TGI (PC-3 prostate): > 55.6 µM | GI50 (RPMI-8226 leukemia): 0.037 µM | TGI (RPMI-8226 leukemia): 15.1 µM | GI50 (RXF 393 renal): 0.0415 µM | TGI (RXF 393 renal): 20 µM | GI50 (SF-268 CNS): 0.0534 µM | TGI (SF-268 CNS): 14.7 µM | GI50 (SF-295 CNS): 0.0253 µM | TGI (SF-295 CNS): 0.0678 µM | GI50 (SF-539 CNS): 0.0334 µM | TGI (SF-539 CNS): 3.87 µM | GI50 (SK-MEL-2 melanoma): 0.0477 µM | TGI (SK-MEL-2 melanoma): 20.7 µM | GI50 (SK-MEL-28 melanoma): 1.14 µM | TGI (SK-MEL-28 melanoma): > 61.6 µM | GI50 (SK-MEL-5 melanoma): 0.0273 µM | TGI (SK-MEL-5 melanoma): 0.0912 µM | GI50 (SK-OV-3 ovarian): 0.0365 µM | TGI (SK-OV-3 ovarian): 15 µM | GI50 (SN12C renal): 0.0486 µM | TGI (SN12C renal): 20.5 µM | GI50 (SNB-19 CNS): 0.0441 µM | TGI (SNB-19 CNS): > 84.8 µM | GI50 (SNB-75 CNS): 0.0489 µM | TGI (SNB-75 CNS): 22.8 µM | GI50 (SR leukemia): 0.03 µM | TGI (SR leukemia): 1.71 µM | GI50 (SW-620 colon): 0.0425 µM | TGI (SW-620 colon): > 88.4 µM | GI50 (TK-10 renal): 14.3 µM | TGI (TK-10 renal): 55.1 µM | GI50 (U251 CNS): 0.0395 µM | TGI (U251 CNS): 17.7 µM | GI50 (UACC-257 melanoma): 0.82 µM | TGI (UACC-257 melanoma): 28.8 µM | GI50 (UACC-62 melanoma): 0.0572 µM | TGI (UACC-62 melanoma): > 48.5 µM | GI50 (UO-31 renal): 0.277 µM | TGI (UO-31 renal): 17.2 µM
